Common to all, as to format: biochemical
One test has as its target T1, PI3Kβ (Homo sapiens, UniProt P42338).
T1 construct: purchased Millipore Corporation 14-603-K
Put plainly: PI3 Kinase HTRF assay, PI3Kβ. As to conditions: 10 μM PIP2, 10 μM ATP; read-out: PI3K β IC50. The source says:
(§1) A PI3 Kinase HTRF® assay kit (cat No. 33-016) purchased from Millipore Corporation was used to screen compounds disclosed herein. This assay used specific, high affinity binding of the GRP1 pleckstrin homology (PH) domain to PIP3, the product of a Class 1A or 1B PI3 Kinase acting on its physiological substrate PIP2. During the detection phase of the assay, a complex was generated between the GST-tagged PH domain and biotinylated short chain PIP3. The biotinylated PIP3 and the GST-tagged PH domain recruited fluorophores (Streptavidin-Allophycocyanin and Europium-labeled anti-GST respectively) to form the fluorescence resonance energy transfer (FRET) architecture, generating a stable time-resolved FRET signal. The FRET complex was disrupted in a competitive manner by non-biotinylated PIP3, a product formed in the PI3 Kinase assay.
(§2) PI3 Kinase α, β, γ and δ activity was assayed using the PI3 Kinase HTRF® assay kit (catalogue No. 33-016) purchased from Millipore Corporation. Purified recombinant PI3Kα (catalogue No. 14-602-K), PI3Kβ (catalogue No. 14-603-K), PI3Kγ (catalogue No. 14-558-K) and PI3Kδ (catalogue No. 14-604-K) were obtained from Millipore Corporation. Purified recombinant PI3K enzyme was used to catalyze the phosphorylation of phosphatidylinositol 4,5-bisphosphate (PIP2 at 10 μM) to phosphatidylinositol 3,4,5-trisphosphate (PIP3) in the presence of 10 μM ATP. The assay was carried out in 384-well format and detected using a Perkin Elmer En Vision Xcite Multilabel Reader. Emission ratios were converted into percent inhibitions and imported into GraphPad Prism software. The concentration necessary to achieve inhibition of enzyme activity by 50% (IC50) was calculated using concentrations ranging from 20 μM to 0.1 nM (12-point curve). IC50 values were determined using a nonlinear regression model available in GraphPad Prism 5. […]

The target in a further test is T2, PI3Kα (Homo sapiens, UniProt P42336).
T2 construct: purchased Millipore Corporation 14-602-K
Put plainly: PI3 Kinase HTRF assay, PI3Kα. The conditions noted are these: 10 μM PIP2, 10 μM ATP; read-out: PI3K α IC50.
From the text: as §1, §2
In general terms: TR-FRET usually uses a lanthanide donor and a delayed reading to cut background.

A further test has as its target T3, PI3Kδ (Homo sapiens, UniProt O00329).
T3 construct: purchased Millipore Corporation 14-604-K
Put plainly: PI3 Kinase HTRF assay, PI3Kδ. As to conditions: 10 μM PIP2, 10 μM ATP; read-out: PI3K δ IC50.
From the text: as §1, §2

In the next test the target is T4, PI3Kγ (Homo sapiens, UniProt P48736).
T4 construct: purchased Millipore Corporation 14-558-K
Put plainly: PI3 Kinase HTRF assay, PI3Kγ. The conditions noted are these: 10 μM PIP2, 10 μM ATP; read-out: PI3K γ IC50.
From the text: as §1, §2

T2 sequence (P42336 whole entry): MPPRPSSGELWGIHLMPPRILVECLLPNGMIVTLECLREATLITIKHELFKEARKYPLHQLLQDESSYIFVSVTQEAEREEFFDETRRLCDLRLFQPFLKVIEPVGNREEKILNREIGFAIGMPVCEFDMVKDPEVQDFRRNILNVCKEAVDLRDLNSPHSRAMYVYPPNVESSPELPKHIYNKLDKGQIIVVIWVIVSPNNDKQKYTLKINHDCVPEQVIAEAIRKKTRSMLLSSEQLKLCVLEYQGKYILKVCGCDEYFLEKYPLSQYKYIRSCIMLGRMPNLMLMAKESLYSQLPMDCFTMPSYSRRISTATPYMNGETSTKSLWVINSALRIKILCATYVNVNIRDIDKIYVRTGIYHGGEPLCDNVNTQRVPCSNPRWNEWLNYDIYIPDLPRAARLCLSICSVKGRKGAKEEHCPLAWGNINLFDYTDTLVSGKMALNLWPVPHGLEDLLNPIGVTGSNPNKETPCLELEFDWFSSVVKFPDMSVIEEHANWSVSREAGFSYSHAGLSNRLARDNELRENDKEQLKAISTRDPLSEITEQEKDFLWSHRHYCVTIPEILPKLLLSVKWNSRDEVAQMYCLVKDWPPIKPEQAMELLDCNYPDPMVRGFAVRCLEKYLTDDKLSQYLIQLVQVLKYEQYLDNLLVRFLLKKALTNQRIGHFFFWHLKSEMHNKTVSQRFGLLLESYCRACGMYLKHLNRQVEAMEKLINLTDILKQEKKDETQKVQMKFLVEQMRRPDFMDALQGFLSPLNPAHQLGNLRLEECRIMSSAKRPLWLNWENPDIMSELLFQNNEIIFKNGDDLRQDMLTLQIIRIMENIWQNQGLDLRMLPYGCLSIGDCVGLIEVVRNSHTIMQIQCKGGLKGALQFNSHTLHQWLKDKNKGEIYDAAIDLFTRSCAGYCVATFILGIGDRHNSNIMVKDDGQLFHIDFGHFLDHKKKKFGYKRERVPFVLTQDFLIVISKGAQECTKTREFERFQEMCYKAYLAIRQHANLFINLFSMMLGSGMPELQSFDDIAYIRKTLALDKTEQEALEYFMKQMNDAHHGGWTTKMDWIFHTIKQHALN
T2 sequence (P27986 whole entry partner): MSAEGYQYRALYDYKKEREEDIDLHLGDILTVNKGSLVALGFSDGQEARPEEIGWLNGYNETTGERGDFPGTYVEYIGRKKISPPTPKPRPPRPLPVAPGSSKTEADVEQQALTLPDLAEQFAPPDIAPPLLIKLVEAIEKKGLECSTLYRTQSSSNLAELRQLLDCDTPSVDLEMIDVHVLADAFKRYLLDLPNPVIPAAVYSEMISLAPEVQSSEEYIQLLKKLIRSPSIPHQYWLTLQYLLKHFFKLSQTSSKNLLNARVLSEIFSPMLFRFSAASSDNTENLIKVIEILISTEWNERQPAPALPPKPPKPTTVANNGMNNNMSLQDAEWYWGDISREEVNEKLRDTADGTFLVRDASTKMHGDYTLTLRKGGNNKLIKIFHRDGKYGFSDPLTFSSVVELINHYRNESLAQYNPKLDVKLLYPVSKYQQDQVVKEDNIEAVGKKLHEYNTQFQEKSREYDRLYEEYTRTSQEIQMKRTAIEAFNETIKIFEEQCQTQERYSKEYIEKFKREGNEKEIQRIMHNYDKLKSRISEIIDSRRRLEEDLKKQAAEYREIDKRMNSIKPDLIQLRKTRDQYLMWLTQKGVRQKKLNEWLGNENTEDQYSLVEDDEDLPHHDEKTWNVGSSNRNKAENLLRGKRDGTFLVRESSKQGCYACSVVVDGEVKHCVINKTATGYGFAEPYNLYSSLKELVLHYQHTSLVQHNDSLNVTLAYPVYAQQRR
T4 sequence (P48736 whole entry): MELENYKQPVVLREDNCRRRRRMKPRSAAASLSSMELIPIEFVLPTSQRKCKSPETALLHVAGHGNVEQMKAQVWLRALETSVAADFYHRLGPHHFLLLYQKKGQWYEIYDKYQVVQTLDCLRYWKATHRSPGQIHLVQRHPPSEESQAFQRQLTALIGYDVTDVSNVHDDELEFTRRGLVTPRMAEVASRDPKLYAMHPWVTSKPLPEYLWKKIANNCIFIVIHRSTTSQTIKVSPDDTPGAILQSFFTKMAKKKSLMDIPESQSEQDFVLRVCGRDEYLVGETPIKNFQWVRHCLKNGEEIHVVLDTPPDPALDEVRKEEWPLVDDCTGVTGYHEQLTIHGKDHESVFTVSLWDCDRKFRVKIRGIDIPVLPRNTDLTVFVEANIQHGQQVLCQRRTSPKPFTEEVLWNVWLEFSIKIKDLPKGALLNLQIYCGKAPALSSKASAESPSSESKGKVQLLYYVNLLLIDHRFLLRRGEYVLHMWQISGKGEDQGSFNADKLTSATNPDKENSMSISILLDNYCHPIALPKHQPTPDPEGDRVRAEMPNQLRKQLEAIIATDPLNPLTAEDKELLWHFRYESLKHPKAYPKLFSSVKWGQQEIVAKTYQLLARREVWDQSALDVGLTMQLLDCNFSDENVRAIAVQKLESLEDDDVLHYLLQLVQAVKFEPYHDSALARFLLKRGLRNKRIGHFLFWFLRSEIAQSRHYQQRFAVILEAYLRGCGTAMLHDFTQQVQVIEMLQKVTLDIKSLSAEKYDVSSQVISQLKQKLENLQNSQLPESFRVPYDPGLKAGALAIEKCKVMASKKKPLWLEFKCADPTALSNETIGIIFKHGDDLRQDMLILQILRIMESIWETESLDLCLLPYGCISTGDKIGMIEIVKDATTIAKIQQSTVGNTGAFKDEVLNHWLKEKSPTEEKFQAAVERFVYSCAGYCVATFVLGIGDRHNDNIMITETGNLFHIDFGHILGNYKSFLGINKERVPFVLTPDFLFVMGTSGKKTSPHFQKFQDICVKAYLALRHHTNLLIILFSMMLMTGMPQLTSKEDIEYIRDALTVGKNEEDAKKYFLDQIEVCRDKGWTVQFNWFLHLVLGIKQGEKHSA
T1 sequence (P42338 whole entry): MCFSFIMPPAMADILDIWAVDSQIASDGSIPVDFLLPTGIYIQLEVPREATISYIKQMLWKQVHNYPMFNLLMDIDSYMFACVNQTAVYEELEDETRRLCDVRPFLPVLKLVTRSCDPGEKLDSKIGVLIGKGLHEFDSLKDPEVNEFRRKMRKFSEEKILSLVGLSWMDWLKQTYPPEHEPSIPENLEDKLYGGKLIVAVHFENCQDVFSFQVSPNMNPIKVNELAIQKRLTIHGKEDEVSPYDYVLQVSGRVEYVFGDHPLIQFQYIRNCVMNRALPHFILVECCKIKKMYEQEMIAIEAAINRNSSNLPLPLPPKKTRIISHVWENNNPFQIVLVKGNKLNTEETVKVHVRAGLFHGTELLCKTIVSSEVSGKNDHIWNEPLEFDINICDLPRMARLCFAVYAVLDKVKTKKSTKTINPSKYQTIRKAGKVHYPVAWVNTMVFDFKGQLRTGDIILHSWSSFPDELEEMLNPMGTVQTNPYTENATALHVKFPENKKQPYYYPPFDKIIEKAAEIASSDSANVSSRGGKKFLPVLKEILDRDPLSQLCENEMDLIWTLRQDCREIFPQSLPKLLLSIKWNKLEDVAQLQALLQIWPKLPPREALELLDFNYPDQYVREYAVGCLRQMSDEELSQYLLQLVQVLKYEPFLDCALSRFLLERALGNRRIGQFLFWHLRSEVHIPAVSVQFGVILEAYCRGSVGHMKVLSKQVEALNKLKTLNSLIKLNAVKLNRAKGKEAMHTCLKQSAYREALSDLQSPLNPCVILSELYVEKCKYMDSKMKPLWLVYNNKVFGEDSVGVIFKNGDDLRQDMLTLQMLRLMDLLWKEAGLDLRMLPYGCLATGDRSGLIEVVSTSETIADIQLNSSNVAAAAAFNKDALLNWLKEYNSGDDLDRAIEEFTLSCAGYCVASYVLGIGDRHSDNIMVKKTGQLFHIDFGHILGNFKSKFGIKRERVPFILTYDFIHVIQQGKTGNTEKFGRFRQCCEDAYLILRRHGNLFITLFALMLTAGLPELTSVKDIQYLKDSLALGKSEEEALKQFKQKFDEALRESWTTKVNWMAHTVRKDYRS
T1 sequence (P27986 whole entry partner): as the sequence (P27986 whole entry partner) above
T3 sequence (O00329 whole entry): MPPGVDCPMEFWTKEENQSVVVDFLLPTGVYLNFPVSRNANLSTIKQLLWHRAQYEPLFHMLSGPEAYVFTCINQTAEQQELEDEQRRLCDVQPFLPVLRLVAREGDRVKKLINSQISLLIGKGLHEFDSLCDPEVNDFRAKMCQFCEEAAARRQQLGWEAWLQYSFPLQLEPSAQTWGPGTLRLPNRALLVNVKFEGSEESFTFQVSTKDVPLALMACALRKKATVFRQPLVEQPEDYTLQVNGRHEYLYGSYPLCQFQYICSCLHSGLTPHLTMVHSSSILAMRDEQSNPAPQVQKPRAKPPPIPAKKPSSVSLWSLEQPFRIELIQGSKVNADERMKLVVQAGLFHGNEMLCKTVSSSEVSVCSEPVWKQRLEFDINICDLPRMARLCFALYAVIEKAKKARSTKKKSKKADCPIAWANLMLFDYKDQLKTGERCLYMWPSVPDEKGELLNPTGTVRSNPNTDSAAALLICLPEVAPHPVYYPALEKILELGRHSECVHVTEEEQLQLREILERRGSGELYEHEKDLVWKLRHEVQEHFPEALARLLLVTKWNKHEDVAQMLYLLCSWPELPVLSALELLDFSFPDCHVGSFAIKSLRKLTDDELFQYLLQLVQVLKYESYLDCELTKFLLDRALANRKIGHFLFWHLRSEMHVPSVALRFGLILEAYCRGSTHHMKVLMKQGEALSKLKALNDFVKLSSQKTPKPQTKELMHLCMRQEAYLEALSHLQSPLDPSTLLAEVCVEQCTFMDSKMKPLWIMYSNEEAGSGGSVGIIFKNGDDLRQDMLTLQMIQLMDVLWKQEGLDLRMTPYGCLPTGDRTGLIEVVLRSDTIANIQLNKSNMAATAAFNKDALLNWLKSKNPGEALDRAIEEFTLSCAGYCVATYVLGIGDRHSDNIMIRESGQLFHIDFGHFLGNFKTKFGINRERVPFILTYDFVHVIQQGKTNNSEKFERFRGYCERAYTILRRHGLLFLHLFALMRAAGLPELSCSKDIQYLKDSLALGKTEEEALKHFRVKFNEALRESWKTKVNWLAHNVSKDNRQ
T3 sequence (P27986 whole entry partner): as the sequence (P27986 whole entry partner) above

Broadly, the IC50 is the concentration that gives 50% inhibition. Turning to `C[C@H](Nc1ncnc2[nH]cnc12)c1cc2cccc(Cl)c2c(CN2CCC2)n1` [Compound 9], the IC50 on PI3Kβ was less than 10 µM; at PI3Kα, more than 10 µM; at PI3Kδ it was less than 1 µM; at PI3Kγ, less than 10 µM.

On to `C[C@H](Nc1ncnc2[nH]cnc12)c1cc2cccc(Cl)c2c(C(=O)N2CC(O)C2)n1` [Compound 22], for which the IC50 at PI3Kβ was less than 10 µM; at PI3Kα, more than 10 µM; at PI3Kδ, less than 0.1 µM; on PI3Kγ, less than 1 µM.

For `C[C@H](Nc1ncnc2[nH]cnc12)c1cc2cccc(Cl)c2c(C(=O)N(C)c2ccccc2)n1` [Compound 27], the IC50 on PI3Kβ is more than 10 µM; at PI3Kα, more than 10 µM; on PI3Kδ it was less than 1 µM; at PI3Kγ, less than 10 µM.

Turning to `C[C@H](Nc1ncnc2[nH]cnc12)c1cc2cccc(Cl)c2c(C(=O)N2CCC(O)CC2)n1` [Compound 28], the IC50 on PI3Kβ is more than 10 µM; on PI3Kα it was more than 10 µM; on PI3Kδ, less than 0.1 µM; at PI3Kγ, less than 1 µM.

Regarding `Cc1nc(-c2nc([C@H](C)Nc3ncnc4[nH]cnc34)cc3cccc(Cl)c23)no1` [Compound 32], the IC50 at PI3Kβ was less than 10 µM; at PI3Kα, more than 10 µM; at PI3Kδ, less than 1 µM; on PI3Kγ, less than 10 µM.

Turning to `C[C@H](Nc1ncnc2[nH]cnc12)c1cc2cccc(Cl)c2c(CC(=O)N2CCOCC2)n1` [Compound 35], the IC50 is more than 10 µM on PI3Kβ, more than 10 µM on PI3Kα, less than 1 µM on PI3Kδ and less than 10 µM on PI3Kγ.

On to `C[C@H](Nc1ncnc2[nH]cnc12)c1cc2cccc(Cl)c2c(C(=O)NC2CCOCC2)n1` [Compound 48], for which the half-maximal inhibitory concentration (IC50) is more than 10 µM on PI3Kβ, more than 10 µM at PI3Kα, less than 0.1 µM on PI3Kδ and less than 10 µM at PI3Kγ.

For `C[C@H](Nc1ncnc2[nH]cnc12)c1cc2cc(F)ccc2c(CCN2CCOCC2)n1` [Compound 55], the IC50 at PI3Kβ is more than 10 µM; at PI3Kα it was more than 10 µM; at PI3Kδ, less than 1 µM; on PI3Kγ it was more than 10 µM.

Regarding `C[C@H](Nc1ncnc2[nH]cnc12)c1cc2cccc(Cl)c2c(C(=O)NC2CCC(O)CC2)n1` (stereo partly drawn) [Compound 58], the IC50 at PI3Kβ is more than 10 µM; at PI3Kα, more than 10 µM; on PI3Kδ, less than 0.1 µM; on PI3Kγ, less than 10 µM.

In the case of `C[C@H](Nc1ncnc2scnc12)c1cc2cccc(Cl)c2c(CCN2CCOCC2)n1` [Compound 72, (S)—N-(1-(8-chloro-1-(2-morpholinoethyl)isoquinolin-3-yl)ethyl)thiazolo[5,4-d]pyrimidin-7-amine], the IC50 on PI3Kβ was less than 1 µM; on PI3Kα it was less than 10 µM; at PI3Kδ, less than 0.1 µM; on PI3Kγ, less than 10 µM.

For the compound `C[C@H](Nc1cc(Cl)nn2ccnc12)c1cc2cccc(Cl)c2c(CCN2CCOCC2)n1` [Compound 76, (S)-6-chloro-N-(1-(8-chloro-1-(2-morpholinoethyl)isoquinolin-3-yl)ethyl)imidazo[1,2-b]pyridazin-8-amine], the IC50 was more than 10 µM at PI3Kβ, more than 10 µM on PI3Kα, less than 10 µM at PI3Kδ and more than 10 µM at PI3Kγ.

In the case of `C[C@H](Nc1cc(Cl)nn2ccnc12)c1cc2ccccc2c(CCN2CCOCC2)n1` [Compound 78], the IC50 was more than 10 µM on PI3Kβ, more than 10 µM at PI3Kα, less than 10 µM at PI3Kδ and more than 10 µM on PI3Kγ.

As for `C[C@H](Nc1ncnc2[nH]cnc12)c1nc(CCN2CCOCC2)c2ccccc2c1F` [Compound 87], the half-inhibitory concentration (IC50) at PI3Kβ was more than 10 µM; at PI3Kα, more than 10 µM; on PI3Kδ, less than 1 µM; at PI3Kγ, more than 10 µM.

Take `C[C@H](Nc1ncnc2cccnc12)c1cc2cccc(Cl)c2c(C(=O)N2CCOC[C@H]2C)n1` [Compound 251]: the IC50 on PI3Kγ was less than 1 µM.

For the compound `C[C@H](Nc1ncnc2scnc12)c1cc2cccc(Cl)c2c(C(=O)N2CCOC[C@H]2C)n1` [Compound 252], the IC50 on PI3Kγ was less than 10 µM.

(Values after patent publication US8901133B2, “Heterocyclic compounds and uses thereof” (Infinity Pharmaceuticals, Inc., priority 2010, dated 2014).)
